Data from patent US9562035B2, “Benzamide derivative useful as FASN inhibitors for the treatment of cancer” (Janssen Pharmaceutica NV, priority 2013, dated 2017).

What was measured:
[1] = target: T1, FASN Keto-reductase Domain (Homo sapiens, UniProt P49327); assay: Fatty Acid Synthase Keto-Reductase Domain (FASN KR) Inhibition; type: biochemical; conditions: mean where tested more than once; read-out: FASN K-R Domain pIC50 (converted)
T1 construct: 10 μL hFASN enzyme (full length, 300 ng, purified in house) and 360 μM NADPH; made in house
T1 sequence (P49327 whole entry, the tested form may be a part): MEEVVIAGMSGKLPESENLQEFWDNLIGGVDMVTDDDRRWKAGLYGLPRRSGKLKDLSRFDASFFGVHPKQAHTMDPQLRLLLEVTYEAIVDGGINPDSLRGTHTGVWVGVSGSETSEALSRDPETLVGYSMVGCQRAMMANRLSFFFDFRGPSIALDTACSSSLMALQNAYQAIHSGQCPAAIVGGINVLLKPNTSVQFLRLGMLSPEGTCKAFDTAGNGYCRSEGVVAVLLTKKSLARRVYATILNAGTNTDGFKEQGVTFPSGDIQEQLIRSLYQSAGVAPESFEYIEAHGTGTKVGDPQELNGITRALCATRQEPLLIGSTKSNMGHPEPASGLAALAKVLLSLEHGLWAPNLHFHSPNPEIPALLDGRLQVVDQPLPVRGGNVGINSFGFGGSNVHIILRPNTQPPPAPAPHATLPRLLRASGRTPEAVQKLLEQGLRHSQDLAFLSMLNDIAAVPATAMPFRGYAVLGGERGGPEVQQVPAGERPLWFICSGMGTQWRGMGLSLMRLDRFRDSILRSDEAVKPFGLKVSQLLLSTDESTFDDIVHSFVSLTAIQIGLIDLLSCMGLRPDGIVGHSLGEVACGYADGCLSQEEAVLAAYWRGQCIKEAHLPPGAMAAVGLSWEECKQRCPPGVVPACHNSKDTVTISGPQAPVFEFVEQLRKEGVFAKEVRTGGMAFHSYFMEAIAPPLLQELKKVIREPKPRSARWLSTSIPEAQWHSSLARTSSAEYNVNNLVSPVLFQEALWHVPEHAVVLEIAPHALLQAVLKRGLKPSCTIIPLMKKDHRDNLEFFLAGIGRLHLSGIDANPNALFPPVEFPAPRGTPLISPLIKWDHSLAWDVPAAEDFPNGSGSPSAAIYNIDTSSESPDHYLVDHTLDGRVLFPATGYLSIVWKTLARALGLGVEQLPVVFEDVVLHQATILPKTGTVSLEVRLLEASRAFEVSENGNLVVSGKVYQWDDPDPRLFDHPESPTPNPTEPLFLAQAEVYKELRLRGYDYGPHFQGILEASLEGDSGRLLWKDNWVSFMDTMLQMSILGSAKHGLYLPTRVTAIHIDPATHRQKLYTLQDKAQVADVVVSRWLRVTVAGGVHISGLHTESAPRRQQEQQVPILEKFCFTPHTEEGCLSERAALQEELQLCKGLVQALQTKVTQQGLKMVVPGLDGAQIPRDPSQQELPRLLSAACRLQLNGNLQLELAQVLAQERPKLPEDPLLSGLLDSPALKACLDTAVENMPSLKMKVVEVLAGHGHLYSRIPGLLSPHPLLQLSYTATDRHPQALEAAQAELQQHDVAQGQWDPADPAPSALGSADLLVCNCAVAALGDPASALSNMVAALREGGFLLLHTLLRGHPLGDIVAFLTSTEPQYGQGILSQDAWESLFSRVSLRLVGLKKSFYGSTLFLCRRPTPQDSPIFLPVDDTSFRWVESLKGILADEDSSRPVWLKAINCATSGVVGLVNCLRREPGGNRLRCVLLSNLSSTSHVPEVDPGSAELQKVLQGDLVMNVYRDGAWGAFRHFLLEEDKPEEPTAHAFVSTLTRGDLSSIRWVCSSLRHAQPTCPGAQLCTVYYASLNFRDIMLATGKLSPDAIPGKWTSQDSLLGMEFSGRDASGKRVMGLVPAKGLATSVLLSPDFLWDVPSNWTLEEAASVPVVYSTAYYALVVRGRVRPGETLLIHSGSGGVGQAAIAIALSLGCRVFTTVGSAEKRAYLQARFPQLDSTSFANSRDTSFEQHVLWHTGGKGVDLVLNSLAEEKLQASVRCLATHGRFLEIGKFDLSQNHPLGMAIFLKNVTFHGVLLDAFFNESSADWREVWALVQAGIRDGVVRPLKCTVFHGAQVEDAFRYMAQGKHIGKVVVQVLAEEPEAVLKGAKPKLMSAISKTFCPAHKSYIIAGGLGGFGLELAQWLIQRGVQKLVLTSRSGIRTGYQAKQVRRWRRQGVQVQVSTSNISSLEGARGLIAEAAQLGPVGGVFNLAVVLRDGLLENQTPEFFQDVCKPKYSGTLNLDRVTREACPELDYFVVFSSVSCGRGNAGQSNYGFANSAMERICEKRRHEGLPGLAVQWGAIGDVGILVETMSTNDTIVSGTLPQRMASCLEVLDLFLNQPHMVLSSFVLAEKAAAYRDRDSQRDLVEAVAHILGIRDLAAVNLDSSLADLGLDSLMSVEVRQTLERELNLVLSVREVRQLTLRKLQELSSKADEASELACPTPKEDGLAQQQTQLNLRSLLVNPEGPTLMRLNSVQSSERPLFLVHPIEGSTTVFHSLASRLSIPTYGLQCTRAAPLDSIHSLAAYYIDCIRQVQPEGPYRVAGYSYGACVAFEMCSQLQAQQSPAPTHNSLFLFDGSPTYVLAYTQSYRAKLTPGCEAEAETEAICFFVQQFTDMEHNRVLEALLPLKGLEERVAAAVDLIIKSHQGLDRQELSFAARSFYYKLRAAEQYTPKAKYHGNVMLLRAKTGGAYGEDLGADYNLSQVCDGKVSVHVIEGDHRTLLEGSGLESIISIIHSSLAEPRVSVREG
Procedure, shortened: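 Full-length human FASN (300 ng) in 100 mM KH2PO4 pH 7.5 with 360 μM NADPH and 180 mM ethyl acetoacetate (stock); A340 decrease read over 20 min at room temperature.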

A2780 ovarian cells [2] = assay: A2780 Ovarian Cell Proliferation Assay in Lipid Reduced Medium, without Palmitate; type: cell-based; conditions: Homo sapiens
Procedure, shortened: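 A2780 cells were seeded in 10% FCS medium and switched next day to 10% lipid-reduced serum without palmitate. Compounds at 0.01–30 μM were added with 0.2% DMSO, 0.2% fatty-acid-free BSA and 0.25% ethanol final. After 96 h, MTT absorbance at 544 nm was normalized to plate controls, and IC50/pIC50 came from a 4-parameter logistic fit.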

A2780 ovarian cells [3] = assay: A2780 Ovarian Cell Proliferation Assay in Lipid Reduced Medium, with Palmitate (control); type: cell-based; conditions: Homo sapiens
Procedure, shortened: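 A2780 cells were seeded in RPMI1640 with 10% FCS, then switched next day to medium with 10% lipid-reduced serum. Compound was added with final 25 μM palmitate, 0.2% fatty-acid-free BSA and 0.2% DMSO, and incubated 96 h at 37 °C. Read-out was MTT absorbance at 544 nm; pIC50 = −log(IC50) from curve fit.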

[4] = tested on: PC-3M-Luc-C6 prostate cells; assay: In Vitro PC-3M-Luc-C6 Prostate Cell Proliferation Assay in Lipid Reduced Medium; type: cell-based; conditions: read-out: PC-3M-Luc-C6 Cells pIC50 (μM) (converted), lipid reduced serum, 96 h
Experimental: PC-3M-Luc-C6 prostate cells were obtained from Xenogen Corporation. Cells were maintained in MEM supplemented with 10% Fetal Calf Serum (FCS, Hyclone), 2 mM glutamine, 1 mM sodium pyruvate, 1% BME vitamins (available from for example, Sigma Aldrich), 0.1 mM non Essential Amino Acid and 50 μg/ml Gentamicin. The cells were passaged twice a week.
1000 PC-3M-Luc-C6 prostate cells (Xenogen) were seeded in a 384-well black with clear bottom plate (costar 3712BC) in 40 μl MEM, 10% LRS (Hyclo ne), 50 μg/ml Gentamicin, 2 mM Glutamine, 1 mM Sodium pyruvaat, 1% BME vitamins and 0.1 mM non Essential Amino Acid and incubated at 37° C., 5% CO2. The next day 10 μl test compound/DMSO diluted in medium was added (3E-5M, 1E-5M, 3E-6M, 1E-6M, 3E-7M, 1E-7M, 3E-8M, 1E-8M final concentration). Compounds were tested in duplicate. After 96 h incubation at 37° C., 5% CO2 25 μl ATP-glow mix was added. The plate was incubated for 30 min at 37° C. and luminescence was measured with the Envision.
pIC50 values were calculated as follows. Raw data generated by the instruments were normalized to % Controlmin values, which were calculated as: % Controlmin=100*(x−mLC)/(mHC−mLC),
where mLC and mHC are the means of the low control wells and high control wells on the plate, after manual exclusion of outliers. The relation between the % Controlmin values and concentration was fitted to a 4-parameter logistic curve using a non-linear least squares regression method to determine the pIC50 value. Outlying data points were excluded manually to get a correct fit. The pIC50 corresponds to −log 10(IC50), if the IC50 is expressed in molar units (http://www.ncbi.nlm.nih.gov/books/NBK91994). The IC50 parameter was always determined by non-linear regression, but one or more of the other parameters may have been held fixed on a relevant input value, such as 0 for the bottom values.
For dose response curves with FASN inhibitors in LNCaP_Vancouver or PC-3M-Luc_C6 cells the curves bottom out around 30 to 40% of the control value. A standard fit PL2, forcing the lower bound to this level was used.
Representative compounds of the present invention were tested according to the procedure as described in Biological Example 4a and 4b above, with results as listed in Table BIO-4, below.

[5] = A2780, lipid reduced medium, without palmitate, 96 h, MTT, read-out: Proliferation A2780 w/o Palmitate pIC50 (converted)
[6] = A2780, lipid reduced medium, 25 μM palmitate, 96 h, MTT, read-out: Proliferation A2780 with Palmitate pIC50 (converted)

| Compound | IC50 [1] [nM] | IC50 (A2780 ovarian cells [2]; [5]) [µM] | IC50 (A2780 ovarian cells [3]; [6]) [µM] | IC50 [4] [µM] | IC50 (A2780 ovarian cells [2]; A2780, 96 h, read-out: Proliferation A2780 w/o Palmitate pIC50 (μM) (converted)) [µM] | IC50 (A2780 ovarian cells [3]; A2780, 96 h, read-out: Proliferation A2780 with Palmitate pIC50 (μM) (converted)) [µM] |
| --- | --- | --- | --- | --- | --- | --- |
| CN(c1ccc(C(=O)N2CCC(c3ccc(-c4cnn(C)c4)cc3)CC2)cc1NC(=O)C1CC1)C1CC1 [Compound 288, N-(2-(cyclopropyl(methyl)amino)-5-(4-(4-(1-methyl-1H-pyrazol-4-yl)phenyl)piperidine-1-carbonyl)phenyl)cyclopropanecarboxamide] | 2510 | 5.13 | > 10 | 3.09 |  |  |
| COCCNc1ccc(C(=O)N2CCC(c3ccc(-c4cnn(C)c4)cc3)CC2)cc1NC(=O)C1CC1 [Compound 286, N-(2-((2-methoxyethyl)amino)-5-(4-(4-(1-methyl-1H-pyrazol-4-yl)phenyl)piperidine-1-carbonyl)phenyl)cyclopropanecarboxamide] | 851 | 0.427 | > 10 | 1.82 |  |  |
| CC(C)Nc1ccc(C(=O)Nc2cc(C(=O)N3CCC(c4ccc(-c5cnn(C)c5)cc4)CC3)ccc2NC(C)C)cn1 [Compound 284, 6-(isopropylamino)-N-(2-(isopropylamino)-5-(4-(4-(1-methyl-1H-pyrazol-4-yl)phenyl)piperidine-1-carbonyl)phenyl)nicotinamide] | 407 | ~0.316 | > 10 | 0.195 |  |  |
| Cc1ccc(C(=O)N2CCC(c3ccc(-c4cnn(C)c4)cc3)CC2)cc1NC(=O)c1ccc(NC(C)C)nc1 [Compound #32, 6-(isopropylamino)-N-(2-methyl-5-(4-(4-(1-methyl-1H-pyrazol-4-yl)phenyl)piperidine-1-carbonyl)phenyl)nicotinamide] | 37.2 |  |  | 0.01 | 0.0135 | 7.24 |
| CC(C)Nc1ccc(C(=O)Nc2cc(C(=O)N3CCC(c4ccc(-c5cnn(C)c5)cc4)CC3)ccc2NC2CC2)cn1 [Compound 283, N-(2-(cyclopropylamino)-5-(4-(4-(1-methyl-1H-pyrazol-4-yl)phenyl)piperidine-1-carbonyl)phenyl)-6-(isopropylamino)nicotinamide] | 631 | 0.363 | > 10 | 0.245 |  |  |
| Cc1ccc(C(=O)N2CC(c3ccc(-c4cnn(C)c4)cc3)C2)cc1NC(=O)c1ccc(N(C)C(C)C)nc1 [Compound #78, 6-(isopropyl(methyl)amino)-N-(2-methyl-5-(3-(4-(1-methyl-1H-pyrazol-4-yl)phenyl)azetidine-1-carbonyl)phenyl)nicotinamide] | 25.1 | ~0.0295 | ~15.1 | ~0.00871 |  |  |
| Cc1ccc(C(=O)N2CC(c3ccc(-c4cnn(C)c4)cc3)C2)cc1NC(=O)c1ccc(N2CCOCC2)nc1 [Compound #66, N-(2-methyl-5-(3-(4-(1-methyl-1H-pyrazol-4-yl)phenyl)azetidine-1-carbonyl)phenyl)-6-morpholinonicotinamide] | 31.6 | ~0.0229 | > 15.1 | ~0.00813 |  |  |
| CC(C)N(C)c1ccc(C(=O)N2CCC(c3ccc(-c4cnn(C)c4)cc3)CC2)cc1NC(=O)c1ccc(Cl)nc1 [Compound 274, 6-chloro-N-(2-(isopropyl(methyl)amino)-5-(4-(4-(1-methyl-1H-pyrazol-4-yl)phenyl)piperidine-1-carbonyl)phenyl)nicotinamide] | ~2190 | ~0.302 | > 10 | 0.776 |  |  |
| CN(C)c1ccc(C(=O)N2CCC(c3ccc(-c4cnn(C)c4)cc3)CC2)cc1NC(=O)c1ccc(Cl)nc1 [Compound 275, 6-chloro-N-(2-(dimethylamino)-5-(4-(4-(1-methyl-1H-pyrazol-4-yl)phenyl)piperidine-1-carbonyl)phenyl)nicotinamide] | 126 | 0.1 | > 10 | 0.12 |  |  |
| COCCN(C)c1ccc(C(=O)N2CCC(c3ccc(-c4cnn(C)c4)cc3)CC2)cc1NC(=O)C1CC1 [Compound 278, N-(2-((2-methoxyethyl)(methyl)amino)-5-(4-(4-(1-methyl-1H-pyrazol-4-yl)phenyl)piperidine-1-carbonyl)phenyl)cyclopropanecarboxamide] | 1100 | 1.78 | > 10 | 2.14 |  |  |

Continued, in another order:

| IC50 [1] [nM] | IC50 (A2780 ovarian cells [2]; [5]) [µM] | IC50 (A2780 ovarian cells [3]; [6]) [µM] | IC50 [4] [µM] | Compound | IC50 (A2780 ovarian cells [2]; A2780, 96 h, read-out: Proliferation A2780 w/o Palmitate pIC50 (μM) (converted)) [µM] | IC50 (A2780 ovarian cells [3]; A2780, 96 h, read-out: Proliferation A2780 with Palmitate pIC50 (μM) (converted)) [µM] |
| --- | --- | --- | --- | --- | --- | --- |
| 148 | 0.0776 | 6.17 | 0.0724 | CC(C)Nc1ccc(C(=O)Nc2cc(C(=O)N3CCC(c4ccc(-c5cnn(C)c5)cc4)CC3)ccc2N(C)C)cn1 [Compound 280, N-(2-(dimethylamino)-5-(4-(4-(1-methyl-1H-pyrazol-4-yl)phenyl)piperidine-1-carbonyl)phenyl)-6-(isopropylamino)nicotinamide] |  |  |
| 204 | 0.676 | > 10 | 0.186 | CC(C)Nc1ccc(C(=O)Nc2cc(C(=O)N3CCC(c4ccc(-c5cnn(C)c5)cc4)CC3)ccc2N(C)C2CC2)cn1 [Compound 287, N-(2-(cyclopropyl(methyl)amino)-5-(4-(4-(1-methyl-1H-pyrazol-4-yl)phenyl)piperidine-1-carbonyl)phenyl)-6-(isopropylamino)nicotinamide] |  |  |
| 457 | 0.209 | > 10 | 0.17 | COCCNc1ccc(C(=O)N2CCC(c3ccc(-c4cnn(C)c4)cc3)CC2)cc1NC(=O)c1ccc(NC(C)C)nc1 [Compound 282, 6-(isopropylamino)-N-(2-((2-methoxyethyl)amino)-5-(4-(4-(1-methyl-1H-Pyrazol-4-yl)phenyl)piperidine-1-carbonyl)phenyl)nicotinamide] |  |  |
| 93.3 | 0.0417 | ~10 | 0.0355 | CNc1ccc(C(=O)N2CCC(c3ccc(-c4cnn(C)c4)cc3)CC2)cc1NC(=O)c1ccc(NC(C)C)nc1 [Compound #279, 6-(isopropylamino)-N-(5-(4-(4-(1-methyl-1H-pyrazol-4-yl)phenyl)piperidine-1-carbonyl)-2-(methylamino)phenyl)nicotinamide] |  |  |
| 479 | ~0.257 | > 10 | 0.49 | CC(C)Nc1ccc(C(=O)Nc2cc(C(=O)N3CCC(c4ccc(-c5cnn(C)c5)cc4)CC3)ccc2N(C)C(C)C)cn1 [Compound 276, N-(2-(isopropyl(methyl)amino)-5-(4-(4-(1-methyl-1H-pyrazol-4-yl)phenyl)piperidine-1-carbonyl)phenyl)-6-(isopropylamino)nicotinamide] |  |  |
| 214 | 0.0589 | 3.39 | 0.126 | CC(C)Nc1ccc(C(=O)Nc2cc(C(=O)N3CCC(c4ccc(-c5cnn(C)c5)cc4)CC3)ccc2N)cn1 [Compound 285, N-(2-amino-5-(4-(4-(1-methyl-1H-pyrazol-4-yl)phenyl)piperidine-1-carbonyl)phenyl)-6-(isopropylamino)nicotinamide] |  |  |
| 933 | 0.417 | ~6.31 | ~0.776 | COCCN(C)c1ccc(C(=O)N2CCC(c3ccc(-c4cnn(C)c4)cc3)CC2)cc1NC(=O)c1ccc(NC(C)C)nc1 [Compound 281, 6-(isopropylamino)-N-(2((2-methoxyethyl)(methyl)amino)-5-(4-(4-(1-methyl-1H-pyrazol-4-yl)phenyl)piperidine-1-carbonyl)phenyl)nicotinamide] |  |  |
